Source: ChEMBL document CHEMBL1147397, “Biemnasterol, a new cytotoxic sterol with the rare 22,25-diene side chain, isolated from the marine sponge Biemna sp” (J Nat Prod, 1993)
≈ marks a conversion by molar mass, not a printed value.

What was measured:
[1] = system: L1210; experiment: Cytotoxicity against mouse L1210 cells; assay type: functional, cell-based
[2] = system: KB; experiment: Cytotoxicity against human KB cells; assay type: functional, cell-based

**Q.** For `C=C(C)[C@H](C)/C=C/[C@@H](C)[C@H]1CC[C@H]2C3=C[C@@H](O)[C@@]4(O)C[C@@H](O)CC[C@]4(C)[C@H]3CC[C@]12C` [BIEMNASTEROL], which IC50 [1] is on record?
**A.** The IC50 was 3 µg/mL (≈ 7 µM).

**Q.** And the IC50 [2]?
**A.** Its IC50 is 1.3 µg/mL (≈ 3.03 µM).
